Laboratory results: patent US6737383B1, “Herbicidal oxadiazolidines” (priority 1999, dated 2004)

Experiments:
blackgrass = assay: Test B pre/postemergence blackgrass; assay type: in vivo, Alopecurus myosuroides
In short: (§1)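 Herbicidal effect was estimated by eye on a ten-point control scale after plants spent twelve to sixteen days in a greenhouse following soil or foliar treatment. Foliar sprays targeted plants at one to four leaves; all doses were formulated in a non-phytotoxic solvent with surfactant.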

pigweed = assay: Test B pre/postemergence pigweed; assay type: in vivo, Amaranthus retroflexus
In short: as §1

cocklebur = assay: Test B pre/postemergence cocklebur; assay type: in vivo, Xanthium strumarium
In short: as §1

giant foxtail = assay: Test B pre/postemergence giant foxtail; assay type: in vivo, Setaria faberii
In short: as §1

wild oat = assay: Test B pre/postemergence wild oat; assay type: in vivo, Avena fatua
In short: as §1

soybean = assay: Test B pre/postemergence soybean; assay type: in vivo, Glycine max
In short: as §1

smallflower flatsedge = assay: Test B flood test smallflower flatsedge; assay type: in vivo, Cyperus difformis
In short: (§2)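 Read-out is a visual response score from 0 (no effect) to 10 (complete control), assigned by comparison with untreated controls. Treatment was applied at the 2-leaf stage, and plants stayed in the greenhouse for twelve to sixteen days before scoring.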

corn = assay: Test B pre/postemergence corn; assay type: in vivo, Zea mays
In short: as §1

velvetleaf = assay: Test B pre/postemergence velvetleaf; assay type: in vivo, Abutilon theophrasti
In short: as §1

bamyardgrass = assay: Test B flood test barnyardgrass; assay type: in vivo, Echinochloa crus-galli
In short: as §2

bedstraw = assay: Test B pre/postemergence bedstraw; assay type: in vivo, Galium aparine; details: Postemergence, Rate 250 g/ha; scale of 0 to 10, 0 is no effect, 10 is complete control
In short: as §1

purple nutsedge = assay: Test B pre/postemergence purple nutsedge; assay type: in vivo, Cyperus rotundus
In short: as §1

crabgrass = assay: Test B pre/postemergence crabgrass; assay type: in vivo, Digitaria sanguinalis
In short: as §1

sugar beet = assay: Test B pre/postemergence sugar beet; assay type: in vivo, Beta vulgaris
In short: as §1

surinam grass = assay: Test B pre/postemergence surinam grass; assay type: in vivo, Brachiaria decumbens
In short: as §1

rice = assay: Test B flood test rice; assay type: in vivo, Oryza sativa
In short: as §2

[1] = Postemergence, Rate 62 g/ha, scale 0 to 10, 0 is no effect, 10 is complete control
[2] = Postemergence, Rate 125 g/ha, scale of 0 to 10 where 0 is no effect and 10 is complete control
[3] = Postemergence, Rate 250 g/ha, scale of 0 to 10, 0 is no effect, 10 is complete control
[4] = Preemergence, Rate 62 g/ha, scale of 0 to 10 where 0 is no effect and 10 is complete control
[5] = Preemergence, Rate 125 g/ha, scale of 0 to 10 where 0 is no effect and 10 is complete control
[6] = Preemergence, Rate 250 g/ha, scale 0 to 10 (0 no effect, 10 complete control)
[7] = Preemergence, Rate 500 g/ha, scale of 0 to 10 where 0 is no effect and 10 is complete control
[8] = Rate 500 g/ha, Postemergence, scale 0 to 10, 0 is no effect, 10 is complete control
[9] = Rate 62 g/ha, flood test species, Pre-emergence, visual evaluation after twelve to sixteen days
[10] = Rate 125 g/ha, under heading Pre-emergence, flood test species, visual evaluation after twelve to sixteen days
[11] = Rate 250 g/ha, Pre-emergence (flood test species), scale 0 to 10, 0 is no effect, 10 is complete control
[12] = Rate 500 g/ha, Pre-emergence section of Table B, 0 to 10 scale (0 no effect, 10 complete control)

SMILES: C#CC(C)n1c(=O)on(C(=O)N(c2ccc(Cl)cc2)C(C)C)c1=O (racemic) [Compound 658]
- Plant response rating, Blackgrass (blackgrass; [1]): 0
- Blackgrass plant response rating (blackgrass; [2]): 3
- Blackgrass plant response rating (blackgrass; [3]): 6
- Blackgrass plant response rating (blackgrass; [4]): 3
- Blackgrass plant response rating (blackgrass; [5]): 7
- Plant response rating, Blackgrass (blackgrass; [6]): 7
- Plant response rating, Blackgrass (blackgrass; [7]): 7
- Blackgrass plant response rating (blackgrass; [8]): 7
- Plant response rating, Redroot pigweed (pigweed; [1]): 6
- Redroot pigweed plant response rating (pigweed; [2]): 6
- Redroot pigweed plant response rating (pigweed; [4]): 2
- Redroot pigweed plant response rating (pigweed; [5]): 9
- Plant response rating, Redroot pigweed (pigweed; [6]): 9
- Plant response rating, Redroot pigweed (pigweed; [7]): 10
- Redroot pigweed plant response rating (pigweed; [8]): 7
- Plant response rating, Cocklebur (cocklebur; [1]): 0
- Cocklebur plant response rating (cocklebur; [2]): 0
- Cocklebur plant response rating (cocklebur; [3]): 2
- Cocklebur plant response rating (cocklebur; [4]): 0
- Cocklebur plant response rating (cocklebur; [5]): 0
- Plant response rating, Cocklebur (cocklebur; [6]): 0
- Plant response rating, Cocklebur (cocklebur; [7]): 0
- Cocklebur plant response rating (cocklebur; [8]): 5
- Plant response rating, Giant foxtail (giant foxtail; [1]): 0
- Giant foxtail plant response rating (giant foxtail; [2]): 3
- Giant foxtail plant response rating (giant foxtail; [3]): 7
- Giant foxtail plant response rating (giant foxtail; [4]): 9
- Giant foxtail plant response rating (giant foxtail; [5]): 9
- Plant response rating, Giant foxtail (giant foxtail; [6]): 9
- Plant response rating, Giant foxtail (giant foxtail; [7]): 10
- Giant foxtail plant response rating (giant foxtail; [8]): 6
- Plant response rating, Wild oats (wild oat; [1]): 1
- Wild oats plant response rating (wild oat; [2]): 1
- Wild oats plant response rating (wild oat; [4]): 0
- Wild oats plant response rating (wild oat; [5]): 2
- Plant response rating, Wild oats (wild oat; [6]): 3
- Plant response rating, Wild oats (wild oat; [7]): 4
- Wild oats plant response rating (wild oat; [8]): 2
- Plant response rating, Soybean (soybean; [1]): 2
- Soybean plant response rating (soybean; [2]): 4
- Soybean plant response rating (soybean; [4]): 0
- Soybean plant response rating (soybean; [5]): 0
- Plant response rating, Soybean (soybean; [6]): 0
- Plant response rating, Soybean (soybean; [7]): 3
- Soybean plant response rating (soybean; [8]): 4
- Plant response rating, S. Flatsedge (0 to 10 scale, 0 is no effect, 10 is complete control) (smallflower flatsedge; [9]): 0
- S. Flatsedge plant response rating (0 to 10 scale, 0 is no effect, 10 is complete control) (smallflower flatsedge; [10]): 0
- S. Flatsedge plant response rating (smallflower flatsedge; [11]): 0
- S. Flatsedge plant response rating (smallflower flatsedge; [12]): 0
- Plant response rating, Corn (corn; [1]): 0
- Corn plant response rating (corn; [2]): 0
- Corn plant response rating (corn; [3]): 0
- Corn plant response rating (corn; [4]): 0
- Corn plant response rating (corn; [5]): 0
- Plant response rating, Corn (corn; [6]): 2
- Plant response rating, Corn (corn; [7]): 2
- Corn plant response rating (corn; [8]): 0
- Plant response rating, Velvetleaf (velvetleaf; [1]): 0
- Velvetleaf plant response rating (velvetleaf; [2]): 0
- Velvetleaf plant response rating (velvetleaf; [4]): 0
- Velvetleaf plant response rating (velvetleaf; [5]): 0
- Plant response rating, Velvetleaf (velvetleaf; [6]): 3
- Plant response rating, Velvetleaf (velvetleaf; [7]): 5
- Velvetleaf plant response rating (velvetleaf; [8]): 6
- Plant response rating, Barnyardgrass (0 to 10 scale, 0 is no effect, 10 is complete control) (bamyardgrass; [9]): 0
- Barnyardgrass plant response rating (0 to 10 scale, 0 is no effect, 10 is complete control) (bamyardgrass; [10]): 0
- Barnyardgrass plant response rating (bamyardgrass; [11]): 0
- Barnyardgrass plant response rating (bamyardgrass; [12]): 0
- Bedstraw plant response rating (bedstraw): 0
- Plant response rating, Nutsedge (purple nutsedge; [1]): 0
- Nutsedge plant response rating (purple nutsedge; [2]): 0
- Nutsedge plant response rating (purple nutsedge; [4]): 0
- Nutsedge plant response rating (purple nutsedge; [5]): 0
- Plant response rating, Nutsedge (purple nutsedge; [6]): 0
- Plant response rating, Nutsedge (purple nutsedge; [7]): 2
- Nutsedge plant response rating (purple nutsedge; [8]): 2
- Plant response rating, Crabgrass (crabgrass; [1]): 0
- Crabgrass plant response rating (crabgrass; [2]): 2
- Crabgrass plant response rating (crabgrass; [3]): 2
- Crabgrass plant response rating (crabgrass; [4]): 3
- Crabgrass plant response rating (crabgrass; [5]): 7
- Plant response rating, Crabgrass (crabgrass; [6]): 8
- Plant response rating, Crabgrass (crabgrass; [7]): 9
- Plant response rating, Sugarbeets (sugar beet; [1]): 0
- Sugarbeets plant response rating (sugar beet; [2]): 0
- Sugarbeets plant response rating (sugar beet; [4]): 3
- Sugarbeets plant response rating (sugar beet; [5]): 7
- Plant response rating, Sugarbeets (sugar beet; [6]): 6
- Plant response rating, Sugarbeets (sugar beet; [7]): 7
- Sugarbeets plant response rating (sugar beet; [8]): 2
- Plant response rating, B. signalgrass (surinam grass; [1]): 0
- Plant response rating, B. signalgrass (surinam grass; [2]): 0
- B. signalgrass plant response rating (surinam grass; [3]): 0
- B. signalgrass plant response rating (surinam grass; [4]): 0
- B. signalgrass plant response rating (surinam grass; [5]): 0
- Plant response rating, B. signalgrass (surinam grass; [6]): 8
- Plant response rating, B. signalgrass (surinam grass; [7]): 8
- B. signalgrass plant response rating (surinam grass; [8]): 0
- Plant response rating, Rice (0 to 10 scale, 0 is no effect, 10 is complete control) (rice; [9]): 0
- Rice plant response rating (0 to 10 scale, 0 is no effect, 10 is complete control) (rice; [10]): 0
- Rice plant response rating (rice; [11]): 0
- Rice plant response rating (rice; [12]): 0
